Drawing on ChEMBL document CHEMBL4818988, “Structure-Activity Relationships for the Marine Natural Product Sintokamides: Androgen Receptor N-Terminus Antagonists of Interest for Treatment of Metastatic Castration-Resistant Prostate Cancer” (J Nat Prod, 2021), this text covers Activity and IC50 for 8 compounds.

In assay [1] the target is T1, Androgen receptor (Homo sapiens) (UniProt P10275).
T1 sequence (whole entry): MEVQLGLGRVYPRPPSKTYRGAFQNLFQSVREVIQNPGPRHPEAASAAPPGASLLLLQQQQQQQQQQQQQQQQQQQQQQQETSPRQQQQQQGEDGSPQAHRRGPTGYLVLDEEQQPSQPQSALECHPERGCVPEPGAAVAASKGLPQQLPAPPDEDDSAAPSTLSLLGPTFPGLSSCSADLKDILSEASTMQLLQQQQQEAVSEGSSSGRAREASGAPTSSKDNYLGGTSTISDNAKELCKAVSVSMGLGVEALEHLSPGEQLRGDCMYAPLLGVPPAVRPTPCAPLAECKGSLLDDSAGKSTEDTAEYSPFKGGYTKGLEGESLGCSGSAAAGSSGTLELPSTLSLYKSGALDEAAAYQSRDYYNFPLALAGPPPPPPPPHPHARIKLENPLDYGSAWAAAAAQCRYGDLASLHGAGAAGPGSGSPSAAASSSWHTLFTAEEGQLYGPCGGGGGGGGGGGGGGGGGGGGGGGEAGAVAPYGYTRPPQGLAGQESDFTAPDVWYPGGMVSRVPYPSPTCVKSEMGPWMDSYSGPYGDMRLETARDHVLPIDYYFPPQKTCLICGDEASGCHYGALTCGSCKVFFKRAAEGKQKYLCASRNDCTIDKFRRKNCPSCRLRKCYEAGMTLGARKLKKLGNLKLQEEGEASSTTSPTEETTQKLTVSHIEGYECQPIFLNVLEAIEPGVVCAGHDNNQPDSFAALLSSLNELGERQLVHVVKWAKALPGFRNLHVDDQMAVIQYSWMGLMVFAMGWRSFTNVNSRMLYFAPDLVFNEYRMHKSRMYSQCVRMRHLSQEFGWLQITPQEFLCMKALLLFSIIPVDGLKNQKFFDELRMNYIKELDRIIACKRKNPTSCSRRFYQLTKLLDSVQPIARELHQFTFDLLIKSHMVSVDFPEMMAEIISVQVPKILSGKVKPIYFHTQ
Put plainly: Antagonist activity at AR in human LNCaP cells transfected with PSA assessed as inhibition of R1881-induced PSA luciferase activity pretreated with compound followed by R1881 addition at 10 uM and measured after 48 hrs by luciferase assay. In kind it is cell-based.

Assay [2] concerns the target T1, Androgen receptor (Homo sapiens). Put plainly: Antagonist activity at AR in human LNCaP cells transfected with PSA assessed as inhibition of R1881-induced PSA luciferase activity pretreated with compound followed by R1881 addition at 25 uM and measured after 48 hrs by luciferase assay. The format is cell-based.
For assay [3] the target is unchanged. Put plainly: Antagonist activity at AR in human LNCaP cells transfected with PSA assessed as inhibition of R1881-induced PSA luciferase activity pretreated with compound followed by R1881 addition at 50 uM and measured after 48 hrs by luciferase assay. In kind it is cell-based.
Assay [4] has the same target. Put plainly: (§1) Antagonist activity at AR in human LNCaP cells transfected with PSA assessed as inhibition of R1881-induced PSA luciferase activity pretreated with compound followed by R1881 addition and measured after 48 hrs by luciferase assay. The format is cell-based. The conditions noted are these: filed as antagonist.
Assay [5] shares this target. Put plainly: Antagonist activity at AR in human LNCaP cells transfected with PSA assessed as inhibition of R1881-induced PSA luciferase activity pretreated with compound followed by R1881 addition at 5 uM and measured after 48 hrs by luciferase assay. The format is cell-based.
The target is the same in assay [6]. Put plainly: Antagonist activity at AR in human LNCaP cells transfected with PSA assessed as inhibition of R1881-induced PSA luciferase activity pretreated with compound followed by R1881 addition at 15 uM and measured after 48 hrs by luciferase assay. The format is cell-based.
Assay [7] shares this target. Put plainly: Antagonist activity at AR in human LNCaP cells transfected with PSA assessed as inhibition of R1881-induced PSA luciferase activity pretreated with compound followed by R1881 addition at 35 uM and measured after 48 hrs by luciferase assay. The format is cell-based.
Another assay addresses T2, Androgen receptor (Homo sapiens, UniProt P10275).
T2 sequence (P10275 whole entry): T1 sequence (whole entry)
Described as §1. The format is cell-based.

For another assay, the system named is PC-3. Put plainly: Cytotoxicity against human PC3 cells assessed as reduction in cell viability after 72 hrs by Alamar blue assay. Particulars: PC-3, 72 h. In kind it is functional, cell-based. (Resazurin is reduced to fluorescent resorufin, in cell work by metabolically active cells.)
For another assay, the system named is DU-145. Put plainly: Cytotoxicity against human DU145 cells assessed as reduction in cell viability after 72 hrs by Alamar blue assay. In kind it is functional, cell-based. Particulars: DU-145, 72 h.

Calls of active or inactive are those of the source. The rule behind the calls is not given here. Where only a bound is given, the exact number is not on record here.

Consider `CCC(=O)N[C@H](CCCCl)C(=O)N1C(=O)C=C(OC)[C@@H]1CCCCl`, for which the result in assay [1], in assay [2] and in [3] was inactive.
Consider `CCC(=O)N[C@H](CCC(Cl)(Cl)Cl)C(=O)N1C(=O)C=C(OC)[C@@H]1CCC(Cl)(Cl)Cl`, for which the Activity entry in [4] was “Dose-Dependent Effect”.
As for `CCC(=O)N[C@H](CCC(Cl)Cl)C(=O)N1C(=O)C=C(OC)[C@@H]1CCC(Cl)Cl`, the Activity entry in [4] was “Dose-Dependent Effect”.
On to `CCC(=O)N[C@H](C[C@H](C)C(Cl)(Cl)Cl)C(=O)N1C(=O)C=C(OC)[C@@H]1C[C@H](C)C(Cl)(Cl)Cl`, for which the outcome in [5] (filed as antagonist) and in assay [1] (filed as antagonist) was Active.
With `CCC(=O)N[C@H](CC(C)C)C(=O)N1C(=O)C=C(OC)[C@@H]1CC(C)C`, the outcome in [5], in [6] and in assay [7] was inactive.
With `CCC(=O)N[C@H](C[C@H](C)C(Cl)(Cl)Cl)C(=O)N1C(=O)C=C(OC)[C@@H]1C[C@H](C)C(Cl)Cl`, the outcome in assay [5] (filed as antagonist) and in assay [1] (filed as antagonist) was Active. The IC50 (usually the point on the concentration scale where inhibition reaches its midpoint) on Androgen receptor was 6.5 µM; with PC-3 it was 29 µM; in the assay with DU-145 it was over 35 µM.
Turning to `CCC(=O)N[C@H](CCC(Cl)(Cl)Cl)C(=O)N1C(=O)C=C(OC)[C@H]1CCC(Cl)(Cl)Cl`, in assay [4], the Activity entry was “Dose-Dependent Effect”.
On the same count and under the same terms, as for `CCC(=O)N[C@H](CCC(Cl)Cl)C(=O)N1C(=O)C=C(OC)[C@H]1CCC(Cl)Cl`, the entry is “Dose-Dependent Effect”.
